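Interpolation was linear, between the two tested concentrations surrounding the appropriate level; five concentrations were tested over 48 hours in 96-well plates. GI50: concentration for 50% inhibition of growth.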 Calls of active or inactive are those of the source. No stated cut-off is given here; in the data, active = GI50 up to about 1.1 µM and inactive = higher.
Key:
Experiment in all cases: NCI tumour cell line growth inhibition, 48 h
HOP-62 = tested on: HOP-62
Malme-3M = tested on: Malme-3M
SK-MEL-28 = tested on: SK-MEL-28
SF-295 = tested on: SF-295
SR = tested on: SR
ACHN = tested on: ACHN
SK-MEL-2 = tested on: SK-MEL-2
HCT-15 = tested on: HCT-15
OVCAR-5 = tested on: OVCAR-5
SF-539 = tested on: SF-539
SNB-75 = tested on: SNB-75
T47D = tested on: T47D
NCI-H23 = tested on: NCI-H23
MDA-N = tested on: MDA-N
Hs-578T = tested on: Hs-578T
SNB-19 = tested on: SNB-19
OVCAR-8 = tested on: OVCAR-8
UO-31 = tested on: UO-31
MOLT-4 = tested on: MOLT-4
EKVX = tested on: EKVX
U-251 = tested on: U-251
NCI-H522 = tested on: NCI-H522
MDA-MB-231 = tested on: MDA-MB-231
BT-549 = tested on: BT-549
COLO 205 = tested on: COLO 205
RXF 393 = tested on: RXF 393
SN12C = tested on: SN12C
NCI/ADR-RES = tested on: NCI/ADR-RES
DU-145 = tested on: DU-145
CCRF-CEM = tested on: CCRF-CEM
HT-29 = tested on: HT-29
SF-268 = tested on: SF-268
UACC-257 = tested on: UACC-257
A498 = tested on: A498
SK-OV-3 = tested on: SK-OV-3
A549 = tested on: A549
M14 = tested on: M14
MDA-MB-435 = tested on: MDA-MB-435
TK-10 = tested on: TK-10
SK-MEL-5 = tested on: SK-MEL-5
MCF7 = tested on: MCF7
K562 = tested on: K562
NCI-H226 = tested on: NCI-H226
HCT-116 = tested on: HCT-116
UACC-62 = tested on: UACC-62
LOX IMVI = tested on: LOX IMVI
PC-3 = tested on: PC-3
RPMI-8226 = tested on: RPMI-8226
OVCAR-3 = tested on: OVCAR-3
OVCAR-4 = tested on: OVCAR-4
IGROV-1 = tested on: IGROV-1
786-0 = tested on: 786-0
HOP-92 = tested on: HOP-92
HL-60 = tested on: HL-60
HCC 2998 = tested on: HCC 2998
SW-620 = tested on: SW-620
KM12 = tested on: KM12
NCI-H460 = tested on: NCI-H460
CAKI-1 = tested on: CAKI-1

CN(C)/C=N/c1ccc2c3c(cccc13)-c1ccccc1-2
GI50 (HOP-62): 16 µM (inactive)
GI50 (Malme-3M): 18.5 µM (inactive)
GI50 (SK-MEL-28): 17.7 µM (inactive)
GI50 (SF-295): 14.4 µM (inactive)
GI50 (SR): 10.3 µM (inactive)
GI50 (ACHN): 16 µM (inactive)
GI50 (SK-MEL-2): 17.1 µM (inactive)
GI50 (HCT-15): 11.8 µM
GI50 (OVCAR-5): 11.1 µM (inactive)
GI50 (SF-539): 12.1 µM (inactive)
GI50 (SNB-75): 13 µM (inactive)
GI50 (T47D): 15 µM (inactive)
GI50 (NCI-H23): 17.2 µM (inactive)
GI50 (MDA-N): 14.5 µM (inactive)
GI50 (Hs-578T): 10.3 µM (inactive)
GI50 (SNB-19): 14.4 µM (inactive)
GI50 (OVCAR-8): 14.6 µM (inactive)
GI50 (UO-31): 5.22 µM (inactive)
GI50 (MOLT-4): 10.1 µM (inactive)
GI50 (EKVX): 10.5 µM (inactive)
GI50 (U-251): 13.4 µM (inactive)
GI50 (NCI-H522): 3.66 µM (inactive)
GI50 (MDA-MB-231): 14.3 µM (inactive)
GI50 (BT-549): 17 µM (inactive)
GI50 (COLO 205): 16.6 µM (inactive)
GI50 (RXF 393): 7.83 µM (inactive)
GI50 (SN12C): 12.6 µM (inactive)
GI50 (NCI/ADR-RES): 14.9 µM (inactive)
GI50 (DU-145): 12.7 µM (inactive)
GI50 (CCRF-CEM): 2.23 µM (inactive)
GI50 (HT-29): 10 µM (inactive)
GI50 (SF-268): 12.5 µM (inactive)
GI50 (UACC-257): 17.3 µM (inactive)
GI50 (A498): 10.1 µM (inactive)
GI50 (SK-OV-3): 13.7 µM (inactive)
GI50 (A549): 11.5 µM (inactive)
GI50 (M14): 10.2 µM (inactive)
GI50 (MDA-MB-435): 15.1 µM (inactive)
GI50 (TK-10): 13.8 µM (inactive)
GI50 (SK-MEL-5): 14.9 µM (inactive)
GI50 (MCF7): 16.8 µM (inactive)
GI50 (K562): 10.2 µM (inactive)
GI50 (NCI-H226): 10.6 µM (inactive)
GI50 (HCT-116): 15.4 µM (inactive)
GI50 (UACC-62): 18.6 µM (inactive)
GI50 (LOX IMVI): 14.5 µM (inactive)
GI50 (PC-3): 12.8 µM (inactive)
GI50 (RPMI-8226): 10.4 µM (inactive)
GI50 (OVCAR-3): 14.9 µM (inactive)
GI50 (OVCAR-4): 15.7 µM (inactive)
GI50 (IGROV-1): 15.5 µM (inactive)
GI50 (786-0): 12.6 µM (inactive)
GI50 (HOP-92): 12.4 µM (inactive)
GI50 (HL-60): 5.58 µM (inactive)

C/C1=C\CC[C@@]2(C)O[C@@H]2C[C@@H](C2(C)CO2)CC/C(C)=C/CC1 (some centres undefined)
GI50 (HOP-62): 30.3 µM (inactive)
GI50 (Malme-3M): 15.3 µM (inactive)
GI50 (SK-MEL-28): 21.7 µM (inactive)
GI50 (SF-295): 22.1 µM (inactive)
GI50 (SR): 33 µM (inactive)
GI50 (ACHN): 17.9 µM (inactive)
GI50 (SK-MEL-2): 27.9 µM (inactive)
GI50 (HCT-15): 10.3 µM
GI50 (OVCAR-5): 22.3 µM (inactive)
GI50 (SF-539): 21.7 µM (inactive)
GI50 (SNB-75): 26.2 µM (inactive)
GI50 (T47D): 32.5 µM (inactive)
GI50 (NCI-H23): 19.4 µM (inactive)
GI50 (MDA-N): 25.6 µM (inactive)
GI50 (Hs-578T): 19.5 µM (inactive)
GI50 (SNB-19): 19.4 µM (inactive)
GI50 (OVCAR-8): 19.1 µM (inactive)
GI50 (UO-31): 25.2 µM (inactive)
GI50 (MOLT-4): 47.2 µM (inactive)
GI50 (EKVX): 13.8 µM (inactive)
GI50 (U-251): 15.4 µM (inactive)
GI50 (NCI-H522): 23.7 µM (inactive)
GI50 (HCC 2998): 15 µM (inactive)
GI50 (MDA-MB-231): 18.5 µM (inactive)
GI50 (BT-549): 21.2 µM (inactive)
GI50 (COLO 205): 15.6 µM (inactive)
GI50 (SN12C): 17.7 µM (inactive)
GI50 (SW-620): 32.8 µM (inactive)
GI50 (NCI/ADR-RES): 20.4 µM (inactive)
GI50 (DU-145): 24.8 µM (inactive)
GI50 (CCRF-CEM): 19.8 µM (inactive)
GI50 (HT-29): 34.4 µM (inactive)
GI50 (SF-268): 17.1 µM (inactive)
GI50 (UACC-257): 36.8 µM (inactive)
GI50 (A498): > 100 µM (inactive)
GI50 (SK-OV-3): 49.3 µM (inactive)
GI50 (KM12): 17.5 µM (inactive)
GI50 (A549): 16.1 µM (inactive)
GI50 (NCI-H460): 19.1 µM (inactive)
GI50 (M14): 22.8 µM (inactive)
GI50 (MDA-MB-435): 20.6 µM (inactive)
GI50 (TK-10): 15.4 µM (inactive)
GI50 (SK-MEL-5): 21.7 µM (inactive)
GI50 (MCF7): 21.7 µM (inactive)
GI50 (K562): 34.4 µM (inactive)
GI50 (NCI-H226): 15.2 µM (inactive)
GI50 (HCT-116): 20.4 µM (inactive)
GI50 (UACC-62): 16 µM (inactive)
GI50 (LOX IMVI): 14.4 µM (inactive)
GI50 (PC-3): 22 µM (inactive)
GI50 (RPMI-8226): 31 µM (inactive)
GI50 (OVCAR-3): 23.8 µM (inactive)
GI50 (OVCAR-4): 37.4 µM (inactive)
GI50 (CAKI-1): 19.6 µM (inactive)
GI50 (IGROV-1): 32.9 µM (inactive)
GI50 (786-0): 16.8 µM (inactive)
GI50 (HOP-92): 33.7 µM (inactive)
GI50 (HL-60): 27.1 µM (inactive)

Cn1c2c(c3c(=O)[nH]ncc31)Cc1ccccc1-2
GI50 (HOP-62): 22.5 µM (inactive)
GI50 (Malme-3M): 16.3 µM (inactive)
GI50 (SK-MEL-28): 24.4 µM (inactive)
GI50 (SF-295): 4.33 µM (inactive)
GI50 (SR): 3.79 µM (inactive)
GI50 (ACHN): 5.07 µM (inactive)
GI50 (SK-MEL-2): 21.3 µM (inactive)
GI50 (HCT-15): 11.1 µM
GI50 (OVCAR-5): 31.1 µM (inactive)
GI50 (SF-539): 19.2 µM (inactive)
GI50 (SNB-75): 16.1 µM (inactive)
GI50 (T47D): 25.6 µM (inactive)
GI50 (NCI-H23): 24.3 µM (inactive)
GI50 (MDA-N): 12.9 µM (inactive)
GI50 (Hs-578T): 26.5 µM (inactive)
GI50 (SNB-19): 18.2 µM (inactive)
GI50 (OVCAR-8): 11.7 µM (inactive)
GI50 (UO-31): 5.53 µM (inactive)
GI50 (MOLT-4): 3.45 µM (inactive)
GI50 (EKVX): 22.7 µM (inactive)
GI50 (U-251): 13.5 µM (inactive)
GI50 (NCI-H522): 17.8 µM (inactive)
GI50 (MDA-MB-231): 14 µM (inactive)
GI50 (BT-549): 18.3 µM (inactive)
GI50 (COLO 205): 10.9 µM (inactive)
GI50 (RXF 393): 15.5 µM (inactive)
GI50 (SN12C): 7.62 µM (inactive)
GI50 (SW-620): 7.24 µM (inactive)
GI50 (NCI/ADR-RES): 16 µM (inactive)
GI50 (DU-145): 10.6 µM (inactive)
GI50 (CCRF-CEM): 9.1 µM (inactive)
GI50 (HT-29): 9.64 µM (inactive)
GI50 (SF-268): 12 µM (inactive)
GI50 (UACC-257): 10.8 µM (inactive)
GI50 (A498): 6.62 µM (inactive)
GI50 (SK-OV-3): 6.49 µM (inactive)
GI50 (KM12): 16.3 µM (inactive)
GI50 (A549): 6.56 µM (inactive)
GI50 (NCI-H460): 3.04 µM (inactive)
GI50 (M14): 15.6 µM (inactive)
GI50 (MDA-MB-435): 14.3 µM (inactive)
GI50 (TK-10): 5.81 µM (inactive)
GI50 (SK-MEL-5): 12.2 µM (inactive)
GI50 (MCF7): 11.5 µM (inactive)
GI50 (K562): 18.2 µM (inactive)
GI50 (NCI-H226): 13.8 µM (inactive)
GI50 (HCT-116): 3.64 µM (inactive)
GI50 (LOX IMVI): 6.65 µM (inactive)
GI50 (PC-3): 21.5 µM (inactive)
GI50 (RPMI-8226): 15.9 µM (inactive)
GI50 (OVCAR-3): 12.7 µM (inactive)
GI50 (OVCAR-4): 21.3 µM (inactive)
GI50 (CAKI-1): 13.3 µM (inactive)
GI50 (IGROV-1): 6.79 µM (inactive)
GI50 (786-0): 6.37 µM (inactive)
GI50 (HOP-92): 25.2 µM (inactive)
GI50 (HL-60): 14.7 µM (inactive)

From ChEMBL document CHEMBL1201862, “PubChem BioAssay data set” (2004)
